{"source": "patent US20260262643A1", "about": "“HERBICIDAL BENZOXAZINES” (FMC CORPORATION, priority 2022, published 2026)", "key": {"[1]": {"system": "oat, wild", "test": "Test C postemergence", "type": "in vivo, Avena fatua", "settings": "10 days", "summary_of_the_method": "(§1)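 Soil-applied (pre) and foliar (post, 1–2 leaf, 2–10 cm) sprays; surfactant-containing non-phytotoxic solvent vehicle; loam/sand substrate. Readout: visual % control at 10 d, greenhouse, versus untreated.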"}, "[2]": {"system": "barnyardgrass", "test": "Test C preemergence", "type": "in vivo, Echinochloa crusgalli", "settings": "0 to 100 scale (0 no effect, 100 complete control)", "summary_of_the_method": "as §1"}, "[3]": {"system": "corn", "test": "Test C postemergence", "type": "in vivo, Zea mays", "settings": "10 days", "summary_of_the_method": "as §1"}, "[4]": {"system": "ragweed", "test": "Test C postemergence", "type": "in vivo, Ambrosia artemisiifolia", "settings": "10 days", "summary_of_the_method": "as §1"}, "[5]": {"system": "corn", "test": "Test C preemergence", "type": "in vivo, Zea mays", "settings": "0 to 100 scale (0 no effect, 100 complete control)", "summary_of_the_method": "as §1"}, "[6]": {"system": "pigweed, palmer", "test": "Test C preemergence", "type": "in vivo, Amaranthus palmeri", "settings": "0 to 100 scale (0 no effect, 100 complete control)", "summary_of_the_method": "as §1"}, "[7]": {"system": "barnyardgrass", "test": "Test D flooded paddy test", "type": "in vivo, Echinochloa crus-galli", "settings": "250 g ai/ha, applied to paddy water, visual rating after 13 to 14 days, scale 0 to 100 (0 no effect, 100 complete control)", "summary_of_the_method": "(§2)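 Rating scale 0–100 (0 no effect, 100 complete control), visual, versus controls. Readout at 13–14 days after in-water application to 2-leaf plants in pots flooded 3 cm deep.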"}, "[8]": {"system": "ragweed", "test": "Test C preemergence", "type": "in vivo, Ambrosia artemisiifolia", "settings": "0 to 100 scale (0 no effect, 100 complete control)", "summary_of_the_method": "as §1"}, "[9]": {"system": "horseweed", "test": "Test C postemergence", "type": "in vivo, Erigeron canadensis", "settings": "10 days", "summary_of_the_method": "as §1"}, "[10]": {"system": "galium", "test": "Test C postemergence", "type": "in vivo, Galium aparine", "settings": "10 days", "summary_of_the_method": "as §1"}, "[11]": {"system": "kochia", "test": "Test C postemergence", "type": "in vivo, Bassia scoparia", "settings": "10 days", "summary_of_the_method": "as §1"}, "[12]": {"system": "soybean", "test": "Test C preemergence", "type": "in vivo, Glycine max", "settings": "0 to 100 scale (0 no effect, 100 complete control)", "summary_of_the_method": "as §1"}, "[13]": {"system": "pigweed, palmer", "test": "Test C postemergence", "type": "in vivo, Amaranthus palmeri", "settings": "10 days", "summary_of_the_method": "as §1"}, "[14]": {"system": "green foxtail", "test": "Test C postemergence", "type": "in vivo, Setaria viridis", "settings": "10 days", "summary_of_the_method": "as §1"}, "[15]": {"system": "ryegrass, Italian", "test": "Test C preemergence", "type": "in vivo, Lolium multiflorum", "settings": "0 to 100 scale (0 no effect, 100 complete control)", "summary_of_the_method": "as §1"}, "[16]": {"system": "wheat", "test": "Test C preemergence", "type": "in vivo, Triticum aestivum", "settings": "0 to 100 scale (0 no effect, 100 complete control)", "summary_of_the_method": "as §1"}, "[17]": {"system": "oat, wild", "test": "Test C preemergence", "type": "in vivo, Avena fatua", "settings": "0 to 100 scale (0 no effect, 100 complete control)", "summary_of_the_method": "as §1"}, "[18]": {"system": "blackgrass", "test": "Test C preemergence", "type": "in vivo, Alopecurus myosuroides", "settings": "0 to 100 scale (0 no effect, 100 complete control)", "summary_of_the_method": "as §1"}, "[19]": {"system": "ryegrass, Italian", "test": "Test C postemergence", "type": "in vivo, Lolium multiflorum", "settings": "10 days", "summary_of_the_method": "as §1"}, "[20]": {"system": "kochia", "test": "Test C preemergence", "type": "in vivo, Bassia scoparia", "settings": "0 to 100 scale (0 no effect, 100 complete control)", "summary_of_the_method": "as §1"}, "[21]": {"system": "wheat", "test": "Test C postemergence", "type": "in vivo, Triticum aestivum", "settings": "10 days", "summary_of_the_method": "as §1"}, "[22]": {"system": "barnyardgrass", "test": "Test C postemergence", "type": "in vivo, Echinochloa crusgalli", "settings": "10 days", "summary_of_the_method": "as §1"}, "[23]": {"system": "rice", "test": "Test D flooded paddy test", "type": "in vivo, Oryza sativa", "settings": "250 g ai/ha, applied to paddy water, visual rating after 13 to 14 days, scale 0 to 100 (0 no effect, 100 complete control)", "summary_of_the_method": "as §2"}, "[24]": {"system": "sedge, umbrella", "test": "Test D flooded paddy test", "type": "in vivo, Cyperus difformis", "settings": "250 g ai/ha, applied to paddy water, visual rating after 13 to 14 days, scale 0 to 100 (0 no effect, 100 complete control)", "summary_of_the_method": "as §2"}, "[25]": {"system": "green foxtail", "test": "Test C preemergence", "type": "in vivo, Setaria viridis", "settings": "0 to 100 scale (0 no effect, 100 complete control)", "summary_of_the_method": "as §1"}, "[26]": {"system": "blackgrass", "test": "Test C postemergence", "type": "in vivo, Alopecurus myosuroides", "settings": "10 days", "summary_of_the_method": "as §1"}, "[27]": {"system": "ducksalad", "test": "Test D flooded paddy test", "type": "in vivo, Heteranthera limosa", "settings": "250 g ai/ha, applied to paddy water, visual rating after 13 to 14 days, scale 0 to 100 (0 no effect, 100 complete control)", "summary_of_the_method": "as §2"}, "[28]": {"system": "soybean", "test": "Test C postemergence", "type": "in vivo, Glycine max", "settings": "10 days", "summary_of_the_method": "as §1"}, "[29]": {"settings": "125 g ai/ha, postemergence, 0 to 100 scale, 0 no effect, 100 complete control"}, "[30]": {"settings": "Postemergence, 500 g ai/ha, visual 0 to 100 scale (0 no effect, 100 complete control)"}, "[31]": {"settings": "Preemergence, 500 g ai/ha, visual rating after 10 days"}, "[32]": {"settings": "Test C, preemergence, 125 g ai/ha"}}}
{"smiles": "Cc1cc(-n2cnc(C(C)C)n2)cc(C(=O)N2C[C@H](C)Oc3c(Cl)cccc32)c1Cl", "note": "[Compound 220]", "values": [{"measurement": "Plant response rating, Oat, Wild", "setting": "[1]; [29]", "value": 0}, {"measurement": "Plant response rating, Oat, Wild", "setting": "[1]; [30]", "value": 0}, {"measurement": "Plant response rating, Barnyardgrass", "setting": "[2]; [31]", "value": 80}, {"measurement": "Barnyardgrass plant response rating", "setting": "[2]; [32]", "value": 50}, {"measurement": "Plant response rating, Corn", "setting": "[3]; [29]", "value": 10}, {"measurement": "Plant response rating, Corn", "setting": "[3]; [30]", "value": 20}, {"measurement": "Plant response rating, Ragweed", "setting": "[4]; [29]", "value": 0}, {"measurement": "Plant response rating, Ragweed", "setting": "[4]; [30]", "value": 0}, {"measurement": "Plant response rating, Corn", "setting": "[5]; [31]", "value": 10}, {"measurement": "Corn plant response rating", "setting": "[5]; [32]", "value": 0}, {"measurement": "Plant response rating, Pigweed, Palmer", "setting": "[6]; [31]", "value": 100}, {"measurement": "Pigweed, Palmer plant response rating", "setting": "[6]; [32]", "value": 90}, {"measurement": "Plant response rating, Barnyardgrass (Flood)", "setting": "[7]", "value": 0}, {"measurement": "Plant response rating, Ragweed", "setting": "[8]; [31]", "value": 0}, {"measurement": "Ragweed plant response rating", "setting": "[8]; [32]", "value": 0}, {"measurement": "Plant response rating, Horseweed", "setting": "[9]; [29]", "value": 60}, {"measurement": "Plant response rating, Horseweed", "setting": "[9]; [30]", "value": 30}, {"measurement": "Plant response rating, Galium", "setting": "[10]; [29]", "value": 100}, {"measurement": "Plant response rating, Galium", "setting": "[10]; [30]", "value": 100}, {"measurement": "Plant response rating, Kochia", "setting": "[11]; [29]", "value": 70}, {"measurement": "Plant response rating, Kochia", "setting": "[11]; [30]", "value": 90}, {"measurement": "Plant response rating, Soybean", "setting": "[12]; [31]", "value": 80}, {"measurement": "Soybean plant response rating", "setting": "[12]; [32]", "value": 0}, {"measurement": "Plant response rating, Pigweed, Palmer", "setting": "[13]; [29]", "value": 90}, {"measurement": "Plant response rating, Pigweed, Palmer", "setting": "[13]; [30]", "value": 100}, {"measurement": "Plant response rating, Foxtail, Green", "setting": "[14]; [29]", "value": 20}, {"measurement": "Plant response rating, Foxtail, Green", "setting": "[14]; [30]", "value": 50}, {"measurement": "Plant response rating, Ryegrass, Italian", "setting": "[15]; [31]", "value": 90}, {"measurement": "Ryegrass, Italian plant response rating", "setting": "[15]; [32]", "value": 80}, {"measurement": "Plant response rating, Wheat", "setting": "[16]; [31]", "value": 70}, {"measurement": "Wheat plant response rating", "setting": "[16]; [32]", "value": 20}, {"measurement": "Plant response rating, Oat, Wild", "setting": "[17]; [31]", "value": 70}, {"measurement": "Oat, Wild plant response rating", "setting": "[17]; [32]", "value": 60}, {"measurement": "Plant response rating, Blackgrass", "setting": "[18]; [31]", "value": 70}, {"measurement": "Blackgrass plant response rating", "setting": "[18]; [32]", "value": 40}, {"measurement": "Plant response rating, Ryegrass, Italian", "setting": "[19]; [29]", "value": 30}, {"measurement": "Plant response rating, Ryegrass, Italian", "setting": "[19]; [30]", "value": 70}, {"measurement": "Plant response rating, Kochia", "setting": "[20]; [31]", "value": 90}, {"measurement": "Kochia plant response rating", "setting": "[20]; [32]", "value": 80}, {"measurement": "Plant response rating, Wheat", "setting": "[21]; [29]", "value": 20}, {"measurement": "Plant response rating, Wheat", "setting": "[21]; [30]", "value": 20}, {"measurement": "Plant response rating, Barnyardgrass", "setting": "[22]; [29]", "value": 30}, {"measurement": "Plant response rating, Barnyardgrass", "setting": "[22]; [30]", "value": 90}, {"measurement": "Plant response rating, Rice (Flood)", "setting": "[23]", "value": 0}, {"measurement": "Plant response rating, Sedge, Umbrella (Flood)", "setting": "[24]", "value": 0}, {"measurement": "Plant response rating, Foxtail, Green", "setting": "[25]; [31]", "value": 100}, {"measurement": "Foxtail, Green plant response rating", "setting": "[25]; [32]", "value": 100}, {"measurement": "Plant response rating, Blackgrass", "setting": "[26]; [29]", "value": 40}, {"measurement": "Plant response rating, Blackgrass", "setting": "[26]; [30]", "value": 50}, {"measurement": "Plant response rating, Ducksalad (Flood)", "setting": "[27]", "value": 0}, {"measurement": "Plant response rating, Soybean", "setting": "[28]; [29]", "value": 100}, {"measurement": "Plant response rating, Soybean", "setting": "[28]; [30]", "value": 100}]}
